Reference: US20260184700A1, “PDK1 REGULATORY COMPOUND AND COMPOSITION CONTAINING THE SAME” (PROVIBIO CO., LTD., priority 2024, published 2026)

How the values were obtained:
[1] = test system: phospho-PDK1 in SU-DHL-8 cells; assay: PDK1 phosphorylation (pPDK1) by flow cytometry in SU-DHL-8 cells; format: cell-based, human; settings: SU-DHL-8, 24 hours, pPDK1-PE flow cytometry, vs control group
Experimental: SU-DHL-8 cells were cultured in RPMI-1640 medium (containing 10% FBS, 100 U/mL penicillin, and 100 μg/mL streptomycin), and the cell concentration was adjusted to 1×10^6 cells/mL and seeded into a 12-well plate. After stabilizing the cells, the compound of the present invention was added, and the cells were cultured for 24 hours.
After drug treatment, the cells were harvested, and the Fc receptor blocking process was performed. The cells were then fixed and permeabilized using the Intracellular Staining Kit (Cat. No. BD554715) from BD Biosciences. Subsequently, the intracellular pPDK1 was stained using the pPDK1-PE fluorescently labeled antibody (BD Biosciences).
Referring to the figure, the vertical axis represents the phosphorylation level of PDK1 (phospho-PDK1 expression level), and the horizontal axis denotes the concentration-dependent treatment conditions of each compound.

[2] = test system: MRL/lpr mice; assay: Lupus animal model (MRL/lpr mice); format: in vivo, mouse; settings: 41-week-old female MRL/lpr mice; GO15F (30 mg/kg), GO48 (1 mg/kg), GO88 (0.5 mg/kg) intraperitoneally once daily
Text: The MRL/MpJ-Faslpr/J (Hereinafter Referred to as “MRL/lpr”) used in this experiment is one of the representative animal models for systemic lupus erythematosus (SLE), known to produce various autoantibodies, including antinuclear antibodies, due to the lpr (lymphoproliferation) gene.
In this invention, the period up to 9 weeks of age was considered the pre-disease stage, and the period after 23 weeks of age was considered the post-disease stage, and efficacy verification experiments using this model were conducted.
MRL/lpr mice were imported from The Jackson Laboratory and acclimatized for one week in an SPF (Specific Pathogen Free) facility maintained at a temperature of 21-24° C., humidity of 40-60%, and a 12-hour light-dark cycle (lights on at 7:00 AM, lights off at 7:00 PM). […]
The serum separated at the time of necropsy of the lupus animal model was analyzed using the ‘IgG (Total) Mouse Uncoated ELISA Kit (Invitrogen, Cat. #88-50400)’ to measure the concentration of total IgG.
Capture antibody (anti-mouse IgG) diluted 1/250 in coating buffer was added to each well of a 96-well plate (Nunc™ MaxiSorp™ ELISA Plates, Uncoated, BioLegend, Cat. #423501) at 100 μl per well, and the plate was incubated at 4° C. for 16 hours.
To investigate the effect of GO15F administration on changes in the ratio of immune cells in the spleen of a lupus animal model, the spleens of mice administered each compound were excised, cells were extracted, and the cells were suspended in MACS buffer (autoMACS Washing Solution, Miltenyi Biotec., Cat. #130-092-987).
For flow cytometry analysis, FACS tubes (5 mL round tubes, Falcon, Cat. #352052) were used. To prevent non-specific binding of antibodies, 1 μg/mL of anti-mouse CD16/CD32 (InVivoPlus anti-mouse CD16/CD32, BioXCell, Cat. #BP0307) for 30 minutes to prevent non-specific binding of the antibody, then centrifuge at 1,500 rpm for 5 minutes and resuspend in 100 μL of MACS buffer.
For B cells, each FACS tube was stained with 1 μg/mL of FITC-conjugated anti-B220 antibody (eBioscience™, Cat. #11-0452-81) at 4° C. for 30 minutes, then washed with 2 mL of MACS buffer.
For T cells, each FACS tube was stained with 1 μg/mL PerCP-Cy5.5-conjugated anti-CD3 (Biolegend, Cat. #100218) at 4° C. for 30 minutes.
For macrophages, each FACS tube was stained with 1 μg/mL of PE-conjugated anti-CD11b antibody (Biolegend, Cat. #101207) and PerCP-Cy5.5-conjugated anti-F4/80 (Biolegend, Cat. #123128) and incubated at 4° C. for 30 minutes. The tubes were then washed with 2 mL of MACS buffer.
To investigate the effects of compound GO15F according to the present invention on systemic immune responses in a lupus animal model, gene expression analysis of cytokines in kidney tissue was performed as described in (1).
Each kidney tissue was used to isolate total RNA using TRIzol™ (Invitrozen, Cat. #15596018). RNA from each mouse was quantified at 1 μg using a micro-quantitative spectrophotometer (ThermoFisher Scientific, ND2000) and cDNA was synthesized.
The synthesized cDNA from each mouse was quantified to a concentration of 50 ng using a micro-quantitative spectrophotometer, and qPCR was performed for the cytokines ‘IL-2, IL-6, IL-10, IL-17, TNF-α, IFN-γ’ using a SYBR green probe (CFX96, BIO-RAD).
To investigate the effects of drug administration on renal tissue in MRL/lpr mice, the tissue was fixed in 10% neutral buffered formalin at room temperature, followed by stepwise ethanol penetration for dehydration. The tissue was then embedded in xylene and paraffin.
The blocked tissues were sectioned into 4 μm thick slices using a microtome, followed by deparaffinization, hydration, and staining.
Hematoxylin & Eosin staining, PAS staining, and Masson trichrome staining were performed for pathological evaluation of the tissues. […]

[3] = test system: psoriasis-induced BALB/c mice; assay: Psoriasis animal model (Aldara cream, Imiquimod); format: in vivo, mouse
Experimental: To verify the therapeutic effect of the compound according to the present invention on psoriasis, a psoriasis animal model was established as follows, and the compound according to the present invention was administered to evaluate the alleviation of skin lesions and changes in immune cell patterns.
For the establishment of the psoriasis animal model, BALB/c mice (7 weeks old, female, 20 g) were purchased from HanabioTech Co., Ltd. and acclimatized to the rearing environment for one week.
Subsequently, the hair on the mouse back was shaved using a hair removal device for the first time, and then completely shaved using a depilatory cream (Nicrin Cream (80% thioglycolic acid, Il Dong Pharmaceutical)) for the second time. The mice were then kept for 24 hours to confirm the absence of skin damage.
To verify the psoriasis prevention and therapeutic effects of the compounds according to the present invention, the following experimental groups were established:
[Normal control group (Normal, Not Treatment), psoriasis-induced control group (Psoriasis, Not Treatment), psoriasis-induced vehicle control group (Psoriasis, Vehicle), experimental group (GO85, GO86, GO88, GO89, PBK-2024-010, PBK-2024-026, PBK-2025-002, PBK-2025-004, PBK-2025-016, PBK-2025-017, PBK-2025-023)]. […]
Body weights of mice in each group were measured on days 1, 4, and 8 after the start of injection and psoriasis induction. […]
To evaluate the therapeutic effect in a psoriasis-induced mouse model, the PASI (Psoriasis Area and Severity Index) score was measured.
The PASI score is based on three criteria: erythema, scaling, and skin thickness, each scored from 0 (none) to 4 (severe). […]
Observations were conducted daily at the same time, and the same observer visually assessed each criterion and recorded the scores, with the results presented in FIG. 13. […]
All samples were measured in duplicate, and the absorbance was measured at 450 nm using a microplate reader.

[4] = test system: HCT-116 colon cancer cell lines; assay: Invasion Assay using Matrigel, HCT-116; format: cell-based, human; settings: HCT-116, Matrigel invasion, 24 hours treatment
Experimental: To evaluate the metastasis inhibitory efficacy of the compounds of the present invention on HCT-116 colon cancer cell lines, an Invasion Assay using Matrigel was performed to assess the cells' invasion ability.
First, Matrigel was thawed on ice in RPMI-1640 medium without FBS, then diluted with DMEM at a ratio of 1:20.
The diluted Matrigel mixture was applied to the upper chamber at 100 μl per well, and 750 μl of RPMI-1640 without FBS was added to the lower chamber.
The plates were then incubated at 37° C. for 1 hour to allow the Matrigel to solidify.
After coating, the Matrigel mixture in the upper chamber was removed using a pipette, and the chamber was washed with RPMI without FBS.
Human-derived colorectal cancer cell line HCT-116, obtained from the Korean Cell Bank, was cultured in RPMI-1640 medium containing 10% FBS.
Following stabilization, the cells were harvested using Trypsin-EDTA treatment, centrifuged at 1,200 rpm for 3 minutes, the supernatant was removed, and the cells were resuspended in the same medium, the medium in the lower chamber was replaced with 750 μl of RPMI-1640 supplemented with 10% FBS, and the cells were seeded into the upper chamber at a density of 5×10^4 cells/well.
The cells were cultured for 24 hours after attachment, and then the compounds according to the present invention (G078, G085, G086, G088, G089, PBK-2024-010, PBK-2025-010, PBK-2025-013, PBK-2025-016) and the control substance DMSO were diluted and added to the upper chamber after removing the medium.
Additionally, the medium in the lower chamber was replaced with fresh RPMI-1640 containing FBS, and the culture was continued.
After an additional 24 hours, the medium was removed, and 1 ml of methanol was added for 10 minutes to fix the cells.
Subsequently, 1 ml of Hematoxylin was added and reacted for 5 minutes, followed by 1 ml of Eosin, which was reacted for 30 seconds. The sample was then washed with distilled water (DW).
After staining was complete, any remaining cells in the upper chamber were removed. Finally, the infiltrated cells were observed under a microscope, photographed, and the degree of infiltration was analyzed.

Compound | PDK1 phosphorylation (phospho-PDK1 expression level) [1] | hair growth on the facial region [2] | efficacy in improving dermatological symptoms [3] | number of infiltrated cells [4]
Nc1ncccc1C(=O)NCCCCCCCCCCCCN1CCOCC1 [Compound 2, 2-Amino-N-(12-morpholin-4-yl-dodecyl)-nicotinamide] | stronger PDK1 inhibition | hair growth was confirmed | – | –
Nc1nc(NC(=O)CCCCCCCCCCCCN2CCN(CCO)CC2)nc2nc[nH]c12 [Compound 15, 12-[4-(2-hydroxyethyl)piperazin-1-yl]dodecyl-N-(6-aminopurine-2-yl)carboxamide] | – | – | excellent efficacy in improving dermatological symptoms | reduction in the number of infiltrated cells
